Measured values published in US20260191965A1 (priority 2022, published 2026).
≈ marks a conversion by molar mass, not a printed value. Like-named read-outs stand apart in the source and are kept apart here.

Experiments:
[1] = tested on: Mycobacterium tuberculosis H37Rv (ATCC 27294); format: cell-based; conditions: for Log reduction in CFU: vs drug-free control
[2] = tested on: M. tuberculosis Erdman pFCA LuxAB; conditions: for reduction compared to the vehicle group: conjugate 100, rifampicin 10, metronidazole 200 mg/kg; for Log reduction compared to untreated group / Log10 CFU counts in the lungs, Average: QD for 12 days; for Log reduction compared to untreated group / Log10 CFU counts in the lungs, Mouse A / Log10 CFU counts in the lungs, Mouse B / Log10 CFU counts in the lungs, Mouse C / Log10 CFU counts in the lungs, Mouse D / Log10 CFU counts in the lungs, Mouse E / Log10 CFU counts in the lungs, Mouse F / Log10 CFU counts in the lungs, Average: conjugate 100, linezolid 100, PA-824 50, rifampicin 10, metronidazole 200 mg/kg; for Log10 CFU counts in the lungs, Mouse A / Log10 CFU counts in the lungs, Mouse B / Log10 CFU counts in the lungs, Mouse C / Log10 CFU counts in the lungs, Mouse D / Log10 CFU counts in the lungs, Mouse E / Log10 CFU counts in the lungs, Mouse F / Log10 CFU counts in the lungs, Average: day 21; for Log10 CFU counts in the lungs, Mouse A / Log10 CFU counts in the lungs, Mouse B / Log10 CFU counts in the lungs, Mouse C / Log10 CFU counts in the lungs, Mouse D / Log10 CFU counts in the lungs, Mouse E / Log10 CFU counts in the lungs, Mouse F: QD for 12 days from day 7; for Log10 CFU counts in the lungs, Average: group average, 6 mice
[3] = tested on: clinical isolates of Mycobacterium tuberculosis; test: microbe, parasite or virus in culture; format: cell-based; conditions: for MIC: Mycobacterium tuberculosis
[4] = 168 h, clinical isolate strain 1, air with 5% CO2, 7H9/10% OADC, 7 days
[5] = 168 h, clinical isolate strain 2, air with 5% CO2, 7H9/10% OADC, 7 days
[6] = 168 h, clinical isolate strain 3, air with 5% CO2, 7H9/10% OADC, 7 days
[7] = 168 h, clinical isolate strain 4, air with 5% CO2, 7H9/10% OADC, 7 days
[8] = 168 h, clinical isolate strain 5, air with 5% CO2, 7H9/10% OADC, 7 days
[9] = 168 h, clinical isolate strain 6, air with 5% CO2, 7H9/10% OADC, 7 days
[10] = 168 h, clinical isolate strain 7, air with 5% CO2, 7H9/10% OADC, 7 days
[11] = 168 h, clinical isolate strain 8, air with 5% CO2, 7H9/10% OADC, 7 days
[12] = 168 h, clinical isolate strain 9, air with 5% CO2, 7H9/10% OADC, 7 days
[13] = 168 h, clinical isolate strain 10, air with 5% CO2, 7H9/10% OADC, 7 days
[14] = 168 h, clinical isolate strain 11 (sensitive strain), air with 5% CO2, 7H9/10% OADC, 7 days
[15] = read-out: MIC values against sensitive tuberculosis strains, sensitive tuberculosis strains, air containing 5% CO2

## CO[C@H]1/C=C/O[C@@]2(C)Oc3c(C)c(O)c4c(c3C2=O)C2=NC3(CCN(CCn5c([N+](=O)[O-])cnc5C)CC3)NC2=C(NC(=O)/C(C)=C\C=C\[C@H](C)[C@H](O)[C@@H](C)[C@@H](O)[C@@H](C)[C@H](OC(C)=O)[C@@H]1C)C4=O
[1]; at both tested concentrations (20 μg/mL and 5 μg/mL)
  reduction of bacterial count of wild-type Mycobacterium Tuberculosis compared to the drug-free group: > 4 Log10 CFU
[1]; concentration 5 μg/mL
  CFU/mL: 9.75E+03 CFU/mL
  Log reduction in CFU: 4.39
[1]; concentration 20 μg/mL
  CFU/mL: 2.50E+03 CFU/mL
  Log reduction in CFU: 4.98
[2]; […], 100 mg/kg orally QD, 12 consecutive days
  reduction compared to the pre-treatment: 0.69 log CFU
[2]; […], 12 consecutive days
  reduction compared to the vehicle group: 4 log CFU
[2]; […]
  Log reduction compared to untreated group: 4.18
[2]; […], one-way ANOVA, 95% level of confidence
  activity compared to vehicle, rifampicin, metronidazole, linezolid and PA-824 control groups: significantly superior
[2]
  Log10 CFU counts in the lungs, Mouse A: 2.48 Log10 CFU
  Log10 CFU counts in the lungs, Mouse B: 2.18 Log10 CFU
  Log10 CFU counts in the lungs, Mouse C: 3.02 Log10 CFU
  Log10 CFU counts in the lungs, Mouse D: 2.48 Log10 CFU
  Log10 CFU counts in the lungs, Mouse E: 3.80 Log10 CFU
  Log10 CFU counts in the lungs, Mouse F: 2.18 Log10 CFU
  Log10 CFU counts in the lungs, Average: 2.69 Log10 CFU
[2]; mice, after 12 consecutive days of administration, 100 mg/kg QD
  drug-related tolerance issues: no drug-related tolerance issues were observed
[3]; [4]
  MIC: 2 µg/mL (≈ 2.12 µM)
[3]; [5]
  MIC: 0.5 µg/mL (≈ 0.53 µM)
[3]; [6]
  MIC: 2 µg/mL (≈ 2.12 µM)
[3]; [7]
  MIC: 2 µg/mL (≈ 2.12 µM)
[3]; [8]
  MIC: 2 µg/mL (≈ 2.12 µM)
[3]; [9]
  MIC: 1 µg/mL (≈ 1.06 µM)
[3]; [10]
  MIC: 2 µg/mL (≈ 2.12 µM)
[3]; [11]
  MIC: 2 µg/mL (≈ 2.12 µM)
[3]; [12]
  MIC: 0.5 µg/mL (≈ 0.53 µM)
[3]; [13]
  MIC: 1 µg/mL (≈ 1.06 µM)
[3]; [14]
  MIC: 0.016 µg/mL (≈ 0.0169 µM)
[3]; [15]
  MIC: 0.016 µg/mL (≈ 0.0169 µM)

## NNC(=O)c1ccncc1 [Isoniazid, isoniazid]
[1]; concentration 10 μg/mL
  CFU/mL: 3.14E+08 CFU/mL
  Log reduction in CFU: −0.12
[3]; [4]
  MIC: > 40 µg/mL
[3]; [5]
  MIC: 2.5 µg/mL (≈ 18.2 µM)
[3]; [6]
  MIC: 10 µg/mL (≈ 72.9 µM)
[3]; [7]
  MIC: > 40 µg/mL
[3]; [8]
  MIC: 5 µg/mL (≈ 36.5 µM)
[3]; [9]
  MIC: 0.313 µg/mL (≈ 2.28 µM)
[3]; [10]
  MIC: 5 µg/mL (≈ 36.5 µM)
[3]; [11]
  MIC: 2.5 µg/mL (≈ 18.2 µM)
[3]; [12]
  MIC: > 40 µg/mL
[3]; [13]
  MIC: > 40 µg/mL
[3]; [14]
  MIC: 0.039 µg/mL (≈ 0.284 µM)
[3]; [15]
  MIC: 0.039 µg/mL (≈ 0.284 µM)

## Cc1ncc([N+](=O)[O-])n1CCO [Metronidazole, metronidazole]
[1]; concentration 20 μg/mL
  CFU/mL: 1.66E+08 CFU/mL
  Log reduction in CFU: 0.16
[1]; concentration 50 μg/mL
  CFU/mL: 1.02E+08 CFU/mL
  Log reduction in CFU: 0.37
[2]; […], 12 consecutive days
  reduction compared to the vehicle group: 0.09 log CFU
[2]; […]
  Log reduction compared to untreated group: 0.02
[2]
  Log10 CFU counts in the lungs, Mouse A: 6.95 Log10 CFU
  Log10 CFU counts in the lungs, Mouse B: 6.95 Log10 CFU
  Log10 CFU counts in the lungs, Mouse C: 6.15 Log10 CFU
  Log10 CFU counts in the lungs, Mouse D: 6.60 Log10 CFU
  Log10 CFU counts in the lungs, Mouse E: 7.11 Log10 CFU
  Log10 CFU counts in the lungs, Mouse F: 7.31 Log10 CFU
  Log10 CFU counts in the lungs, Average: 6.85 Log10 CFU
[3]; [4]
  MIC: > 32 µg/mL
[3]; [5]
  MIC: > 32 µg/mL
[3]; [6]
  MIC: > 32 µg/mL
[3]; [7]
  MIC: > 32 µg/mL
[3]; [8]
  MIC: > 32 µg/mL
[3]; [9]
  MIC: > 32 µg/mL
[3]; [10]
  MIC: > 32 µg/mL
[3]; [11]
  MIC: > 32 µg/mL
[3]; [12]
  MIC: > 32 µg/mL
[3]; [13]
  MIC: > 32 µg/mL
[3]; [14]
  MIC: > 32 µg/mL
[3]; all tested strains, air containing 5% CO2
  activity against the tested strains: no activity

## O=[N+]([O-])c1cn2c(n1)OC[C@@H](OCc1ccc(OC(F)(F)F)cc1)C2 [PA-824]
[2]; […]
  Log reduction compared to untreated group: 3.04
[2]
  Log10 CFU counts in the lungs, Mouse A: 3.29 Log10 CFU
  Log10 CFU counts in the lungs, Mouse B: 4.00 Log10 CFU
  Log10 CFU counts in the lungs, Mouse C: 4.06 Log10 CFU
  Log10 CFU counts in the lungs, Mouse D: 3.65 Log10 CFU
  Log10 CFU counts in the lungs, Mouse E: 4.01 Log10 CFU
  Log10 CFU counts in the lungs, Mouse F: 3.97 Log10 CFU
  Log10 CFU counts in the lungs, Average: 3.83 Log10 CFU

## CO[C@H]1/C=C/O[C@@]2(C)Oc3c(C)c(O)c4c(c3C2=O)C2=NC3(CCN(CC(C)C)CC3)NC2=C(NC(=O)/C(C)=C\C=C\[C@H](C)[C@H](O)[C@@H](C)[C@@H](O)[C@@H](C)[C@H](OC(C)=O)[C@@H]1C)C4=O [Rifabutin, rifabutin]
[1]; concentration 5 μg/mL
  CFU/mL: 9.77E+07 CFU/mL
  Log reduction in CFU: 0.39
[1]; concentration 20 μg/mL
  CFU/mL: 7.19E+06 CFU/mL
  Log reduction in CFU: 1.52

## CO[C@H]1/C=C/O[C@@]2(C)Oc3c(C)c(O)c4c(O)c(c(/C=N/N5CCN(C)CC5)c(O)c4c3C2=O)NC(=O)/C(C)=C\C=C\[C@H](C)[C@H](O)[C@@H](C)[C@@H](O)[C@@H](C)[C@H](OC(C)=O)[C@@H]1C [Rifampicin, rifampicin]
[1]; concentration 5 μg/mL
  CFU/mL: 2.19E+07 CFU/mL
  Log reduction in CFU: 1.04
[1]; concentration 20 μg/mL
  CFU/mL: 1.23E+07 CFU/mL
  Log reduction in CFU: 1.29
[2]; […], 12 consecutive days
  reduction compared to the vehicle group: 0.65 log CFU
[2]; […]
  Log reduction compared to untreated group: 0.58
[2]
  Log10 CFU counts in the lungs, Mouse A: 6.29 Log10 CFU
  Log10 CFU counts in the lungs, Mouse B: 6.55 Log10 CFU
  Log10 CFU counts in the lungs, Mouse C: 6.66 Log10 CFU
  Log10 CFU counts in the lungs, Mouse D: 6.24 Log10 CFU
  Log10 CFU counts in the lungs, Mouse E: 5.52 Log10 CFU
  Log10 CFU counts in the lungs, Mouse F: 6.46 Log10 CFU
  Log10 CFU counts in the lungs, Average: 6.29 Log10 CFU
[3]; [4]
  MIC: > 40 µg/mL
[3]; [5]
  MIC: 5 µg/mL (≈ 6.08 µM)
[3]; [6]
  MIC: > 40 µg/mL
[3]; [7]
  MIC: > 40 µg/mL
[3]; [8]
  MIC: > 40 µg/mL
[3]; [9]
  MIC: > 40 µg/mL
[3]; [10]
  MIC: > 40 µg/mL
[3]; [11]
  MIC: > 40 µg/mL
[3]; [12]
  MIC: 20 µg/mL (≈ 24.3 µM)
[3]; [13]
  MIC: 40 µg/mL (≈ 48.6 µM)
[3]; [14]
  MIC: 0.039 µg/mL (≈ 0.0474 µM)
[3]; [15]
  MIC: 0.039 µg/mL (≈ 0.0474 µM)

## CO[C@H]1/C=C/O[C@@]2(C)Oc3c(C)c(O)c4c(O)c(c(/C=N/N5CCN(C6CCCC6)CC5)c(O)c4c3C2=O)NC(=O)/C(C)=C\C=C\[C@H](C)[C@H](O)[C@@H](C)[C@@H](O)[C@@H](C)[C@H](OC(C)=O)[C@@H]1C [Rifapentine, rifapentine]
[1]; concentration 5 μg/mL
  CFU/mL: 1.80E+07 CFU/mL
  Log reduction in CFU: 1.12
[1]; concentration 20 μg/mL
  CFU/mL: 1.91E+07 CFU/mL
  Log reduction in CFU: 1.1

## CC(=O)NC[C@H]1CN(c2ccc(N3CCOCC3)c(F)c2)C(=O)O1 [linezolid]
[2]; […]
  Log reduction compared to untreated group: 1.57
[2]
  Log10 CFU counts in the lungs, Mouse A: 5.86 Log10 CFU
  Log10 CFU counts in the lungs, Mouse B: 4.61 Log10 CFU
  Log10 CFU counts in the lungs, Mouse C: 5.76 Log10 CFU
  Log10 CFU counts in the lungs, Mouse D: 4.59 Log10 CFU
  Log10 CFU counts in the lungs, Mouse E: 5.13 Log10 CFU
  Log10 CFU counts in the lungs, Average: 5.30 Log10 CFU
